Results reported in patent US6737383B1, “Herbicidal oxadiazolidines” (priority 1999, dated 2004).

Key:
[1] = tested on: bedstraw; experiment: Test B pre/postemergence bedstraw; type: in vivo, Galium aparine
Summary of the method: (§1)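 Response is a visual 0-to-10 score relative to untreated plants, where 0 means no effect and 10 means complete control, taken twelve to sixteen days after application. Treatments went onto soil at planting and onto foliage of 1- to 4-leaf plants, using a surfactant-containing non-phytotoxic solvent.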

[2] = tested on: blackgrass; experiment: Test B pre/postemergence blackgrass; type: in vivo, Alopecurus myosuroides
Summary of the method: as §1

[3] = tested on: surinam grass; experiment: Test B pre/postemergence surinam grass; type: in vivo, Brachiaria decumbens
Summary of the method: as §1

[4] = tested on: cocklebur; experiment: Test B pre/postemergence cocklebur; type: in vivo, Xanthium strumarium
Summary of the method: as §1

[5] = tested on: corn; experiment: Test B pre/postemergence corn; type: in vivo, Zea mays
Summary of the method: as §1

[6] = tested on: crabgrass; experiment: Test B pre/postemergence crabgrass; type: in vivo, Digitaria sanguinalis
Summary of the method: as §1

[7] = tested on: giant foxtail; experiment: Test B pre/postemergence giant foxtail; type: in vivo, Setaria faberii
Summary of the method: as §1

[8] = tested on: morningglory; experiment: Test B pre/postemergence morningglory; type: in vivo, Ipomoea hederacea
Summary of the method: as §1

[9] = tested on: pigweed; experiment: Test B pre/postemergence pigweed; type: in vivo, Amaranthus retroflexus; details: for Plant response rating, Redroot pigweed: Postemergence
Summary of the method: as §1

[10] = tested on: rape; experiment: Test B pre/postemergence rape; type: in vivo, Brassica napus
Summary of the method: as §1

[11] = tested on: soybean; experiment: Test B pre/postemergence soybean; type: in vivo, Glycine max; details: for Plant response rating, Soybean: Postemergence
Summary of the method: as §1

[12] = tested on: sugar beet; experiment: Test B pre/postemergence sugar beet; type: in vivo, Beta vulgaris; details: for Plant response rating, Sugarbeets: Postemergence
Summary of the method: as §1

[13] = tested on: velvetleaf; experiment: Test B pre/postemergence velvetleaf; type: in vivo, Abutilon theophrasti; details: for Plant response rating, Velvetleaf: Postemergence
Summary of the method: as §1

[14] = tested on: wheat; experiment: Test B pre/postemergence wheat; type: in vivo, Triticum aestivum; details: for Plant response rating, Wheat: Postemergence
Summary of the method: as §1

[15] = tested on: wild oat; experiment: Test B pre/postemergence wild oat; type: in vivo, Avena fatua; details: for Plant response rating, Wild oats: Postemergence
Summary of the method: as §1

[16] = tested on: purple nutsedge; experiment: Test B pre/postemergence purple nutsedge; type: in vivo, Cyperus rotundus
Summary of the method: as §1

[17] = Postemergence, Rate 125 g/ha, scale 0 to 10, 0 is no effect, 10 is complete control
[18] = Preemergence, Rate 62 g/ha, scale 0 to 10 (0 no effect, 10 complete control)
[19] = Preemergence, Rate 125 g/ha, scale 0 to 10, 0 is no effect, 10 is complete control
[20] = Preemergence, Rate 500 g/ha, scale of 0 to 10 where 0 is no effect and 10 is complete control
[21] = Postemergence, Rate 62 g/ha, scale of 0 to 10, 0 is no effect, 10 is complete control
[22] = Postemergence, Rate 500 g/ha, scale of 0 to 10 where 0 is no effect and 10 is complete control
[23] = Rate 250 g/ha, Postemergence, scale of 0 to 10 where 0 is no effect and 10 is complete control
[24] = Rate 500 g/ha, scale of 0 to 10 where 0 is no effect and 10 is complete control
[25] = Rate 250 g/ha, scale of 0 to 10 where 0 is no effect and 10 is complete control

CCOC(=O)C=C(Cn1c(=O)on(C(=O)N(c2ccccc2)C(C)C)c1=O)OCC [Compound 578]
Bedstraw plant response rating [1, 17]: 8
Bedstraw plant response rating [1, 18]: 0
Bedstraw plant response rating [1, 19]: 0
Bedstraw plant response rating (0 to 10 scale) ([1]; Preemergence, Rate 250 g/ha): 0
Bedstraw plant response rating [1, 20]: 0
Blackgrass plant response rating [2, 21]: 0
Blackgrass plant response rating [2, 17]: 0
Plant response rating, Blackgrass [2, 22]: 2
Blackgrass plant response rating [2, 18]: 0
Blackgrass plant response rating [2, 19]: 0
Blackgrass plant response rating (0 to 10 scale) ([2]; Preemergence, Rate 250 g/ha): 0
Blackgrass plant response rating [2, 20]: 4
Plant response rating, Blackgrass [2, 23]: 0
B. signalgrass plant response rating [3, 21]: 0
B. signalgrass plant response rating [3, 17]: 0
Plant response rating, B. signalgrass [3, 22]: 0
B. signalgrass plant response rating [3, 18]: 0
B. signalgrass plant response rating [3, 19]: 3
B. signalgrass plant response rating (0 to 10 scale, 0 is no effect, 10 is complete control) ([3]; Preemergence, Rate 250 g/ha): 9
B. signalgrass plant response rating [3, 20]: 9
Plant response rating, B. signalgrass [3, 23]: 0
Cocklebur plant response rating [4, 21]: 0
Cocklebur plant response rating [4, 17]: 0
Plant response rating, Cocklebur [4, 22]: 0
Cocklebur plant response rating [4, 18]: 0
Cocklebur plant response rating [4, 19]: 0
Cocklebur plant response rating (0 to 10 scale) ([4]; Preemergence, Rate 250 g/ha): 0
Cocklebur plant response rating [4, 20]: 3
Plant response rating, Cocklebur [4, 23]: 0
Corn plant response rating [5, 21]: 0
Corn plant response rating [5, 17]: 0
Plant response rating, Corn [5, 22]: 0
Corn plant response rating [5, 18]: 3
Corn plant response rating [5, 19]: 2
Corn plant response rating (0 to 10 scale) ([5]; Preemergence, Rate 250 g/ha): 2
Corn plant response rating [5, 20]: 4
Plant response rating, Corn [5, 23]: 0
Crabgrass plant response rating [6, 21]: 0
Crabgrass plant response rating [6, 17]: 2
Plant response rating, Crabgrass [6, 22]: 9
Crabgrass plant response rating [6, 18]: 0
Crabgrass plant response rating [6, 19]: 9
Crabgrass plant response rating (0 to 10 scale) ([6]; Preemergence, Rate 250 g/ha): 9
Crabgrass plant response rating [6, 20]: 10
Plant response rating, Crabgrass [6, 23]: 4
Giant foxtail plant response rating [7, 21]: 0
Giant foxtail plant response rating [7, 17]: 4
Plant response rating, Giant foxtail [7, 22]: 8
Giant foxtail plant response rating [7, 18]: 2
Giant foxtail plant response rating [7, 19]: 9
Giant foxtail plant response rating (0 to 10 scale) ([7]; Preemergence, Rate 250 g/ha): 10
Giant foxtail plant response rating [7, 20]: 10
Plant response rating, Giant foxtail [7, 23]: 7
Morningglory plant response rating [8, 21]: 9
Morningglory plant response rating [8, 17]: 10
Plant response rating, Morningglory [8, 22]: 10
Morningglory plant response rating [8, 18]: 0
Morningglory plant response rating [8, 19]: 0
Morningglory plant response rating (0 to 10 scale) ([8]; Preemergence, Rate 250 g/ha): 0
Morningglory plant response rating [8, 20]: 0
Plant response rating, Morningglory [8, 23]: 10
Plant response rating, Redroot pigweed [9, 24]: 3
Redroot pigweed plant response rating [9, 18]: 2
Redroot pigweed plant response rating [9, 19]: 4
Redroot pigweed plant response rating (0 to 10 scale) ([9]; Preemergence, Rate 250 g/ha): 9
Redroot pigweed plant response rating [9, 20]: 10
Plant response rating, Redroot pigweed [9, 25]: 3
Rape plant response rating [10, 21]: 2
Rape plant response rating [10, 17]: 2
Plant response rating, Rape [10, 22]: 4
Rape plant response rating [10, 18]: 0
Rape plant response rating [10, 19]: 0
Rape plant response rating (0 to 10 scale) ([10]; Preemergence, Rate 250 g/ha): 2
Rape plant response rating [10, 20]: 4
Plant response rating, Rape [10, 23]: 4
Plant response rating, Soybean [11, 24]: 4
Soybean plant response rating [11, 18]: 0
Soybean plant response rating [11, 19]: 0
Soybean plant response rating (0 to 10 scale) ([11]; Preemergence, Rate 250 g/ha): 0
Soybean plant response rating [11, 20]: 0
Plant response rating, Soybean [11, 25]: 3
Plant response rating, Sugarbeets [12, 24]: 4
Sugarbeets plant response rating [12, 18]: 0
Sugarbeets plant response rating [12, 19]: 2
Sugarbeets plant response rating (0 to 10 scale) ([12]; Preemergence, Rate 250 g/ha): 3
Sugarbeets plant response rating [12, 20]: 3
Plant response rating, Sugarbeets [12, 25]: 0
Plant response rating, Velvetleaf [13, 24]: 3
Velvetleaf plant response rating [13, 18]: 0
Velvetleaf plant response rating [13, 19]: 2
Velvetleaf plant response rating (0 to 10 scale) ([13]; Preemergence, Rate 250 g/ha): 2
Velvetleaf plant response rating [13, 20]: 2
Plant response rating, Velvetleaf [13, 25]: 4
Plant response rating, Wheat [14, 24]: 0
Wheat plant response rating [14, 18]: 0
Wheat plant response rating [14, 19]: 0
Wheat plant response rating (0 to 10 scale) ([14]; Preemergence, Rate 250 g/ha): 0
Wheat plant response rating [14, 20]: 2
Plant response rating, Wheat [14, 25]: 0
Plant response rating, Wild oats [15, 24]: 0
Wild oats plant response rating [15, 18]: 0
Wild oats plant response rating [15, 19]: 0
Wild oats plant response rating (0 to 10 scale) ([15]; Preemergence, Rate 250 g/ha): 2
Wild oats plant response rating [15, 20]: 2
Plant response rating, Wild oats [15, 25]: 0
Plant response rating, Nutsedge [16, 22]: 0
Nutsedge plant response rating [16, 18]: 0
Nutsedge plant response rating [16, 19]: 0
Nutsedge plant response rating (0 to 10 scale) ([16]; Preemergence, Rate 250 g/ha): 0
Nutsedge plant response rating [16, 20]: 0
